Seven compounds from patent US8653095B2, “Small molecules with antimalarial activity” (Radix Pharmaceuticals, Inc., priority 2011, dated 2014) can be followed below.

One series deals with P. falciparum 3D7. Put plainly: In vitro blood stage antimalarial efficacy, [3H]hypoxanthine uptake, strain 3D7. The series is classed as cell-based. The note with it: Plasmodium falciparum. On the procedure: (§1) In Vitro Blood Stage Antimalarial Efficacy Evaluation. New compounds were tested against a panel of strains of P. falciparum.
(§2) Test compounds were initially dissolved in DMSO and diluted 400 fold in RPMI 1640 culture medium supplemented with 25 mM Hepes, 32 mM NaHCO3 and 10% Albumax I (Gibco, NY). These solutions were subsequently serially diluted two-fold with a Beckman Biomek® 1000 Robot (Fullerton, Calif.) over 11 different concentrations. The parasites were exposed to serial dilutions of each compound for 48 hrs and incubated at 37° C. with 5% O2, 5% CO2 and 90% N2 prior to the addition of [^3H]hypoxanthine. After a further incubation of 18 hrs, parasite DNA was harvested from each microtiter well using Packard Filtermate™ 196 Harvester (Meriden, Conn.) onto glass filters. Uptake of [^3H]hypoxanthine was measured with a Packard TopCount Liquid Scintillation Counter (Packard Instrument Co.).

The next series deals with P. falciparum K1. Description: In vitro blood stage antimalarial efficacy, [3H]hypoxanthine uptake, strain K1. The format is cell-based. The note with it: Plasmodium falciparum. On the procedure:
as §1, §2

The subject of a further series is P. falciparum TM4. Put plainly: In vitro blood stage antimalarial efficacy, [3H]hypoxanthine uptake, strain TM4. The settings on record: Plasmodium falciparum. The format is cell-based. On the procedure: as §1, §2
A further series relates to P. falciparum DD2. Put plainly: In vitro blood stage antimalarial efficacy, [3H]hypoxanthine uptake, strain DD2. The series is classed as cell-based. The note with it: Plasmodium falciparum. On the procedure: as §1, §2
The test system of a further series is P. falciparum V1S. Description: microbe, parasite or virus in culture. The settings on record: Plasmodium falciparum. The series is classed as cell-based. On the procedure: as §1, §2
Another series concerns P. falciparum TM6. Description: In vitro blood stage antimalarial efficacy, [3H]hypoxanthine uptake, strain TM6. The format is cell-based. The note with it: Plasmodium falciparum. On the procedure: as §1, §2
Another series deals with P. falciparum PH3. Description: In vitro blood stage antimalarial efficacy, [3H]hypoxanthine uptake, strain PH3. The series is classed as cell-based. The note with it: Plasmodium falciparum. On the procedure: as §1, §2
The subject of another series is rodent P. berghei. The note with it: for MCureD (minimum curative dose): rodent P. berghei. On the procedure: Antimalarial potency was measured by determination of the MCD (minimum clearance dose), a commonly used efficacy measurement. The primary therapeutic indices, which were obtained by using the MCDs as the effective parameters, were calculated. A secondary therapeutic indices measure of antimalarial potency was determined by use of the dose for the MCureD (minimum curative dose).

The test system of series [1] is Liver stage of P. yoelii yoelii. Put plainly: In vitro liver-stage antimalarial efficacy evaluation. The series is classed as cell-based. The settings on record: Plasmodium yoelii. On the procedure:
In Vitro Liver-Stage Antimalarial Efficacy Evaluation. Any new desirable antimalarial drug should be broad spectrum: it should be active against both the blood stage and the liver stage of the parasite. New compounds were assessed on the Plasmodium yoelii liver stage in vitro. The liver stage of P. yoelii is a parasite of rodent extensively used as an experimental model for studying the initial phase of the malaria infection.

For a further series, the system named is Plasmodium cynomolgi. Put plainly: Radical curative activity in relapsed Rhesus monkeys. The format is in vivo. The note with it: CQ alone 10 mg/kg/day for 7 days, no drug 2. From the text: Compounds with antihypnozoite activity will delay the relapse or radically cure the infection. […] Relapse was expected in the control group. Relapse in the treated group indicates failure of the test compounds. […] After standard treatment, blood smears were monitored daily for 4 consecutive days of negative results and 2 times weekly for 2 weeks.

Series [2] deals with multi-drug resistant P. falciparum Thailand T24 strain. Description: In vivo efficacy in immunocompromised BXN mice infected with P. falciparum T24. The settings on record: Plasmodium falciparum, 96 h, oral once daily for 4 days. An excerpt:
(§3) Antimalarial efficacy data was obtained by evaluating new compounds in two rodent models: (I) Swiss mice infected with rodent malaria strain P. berghei; (II) Immunocompromised BXN mice infected with either the sensitive P. falciparum African NF54 strain or the multi-drug resistant P. falciparum Thailand T24 strain.

The subject of series [3] is P. falciparum African NF54 strain. Put plainly: In vivo efficacy in immunocompromised BXN mice infected with P. falciparum NF54. The note with it: Plasmodium falciparum, 96 h, oral once daily for 4 days.
Excerpt: as §3

The subject of a further series is P. berghei NK-65. Description: In vivo efficacy in Swiss mice infected with P. berghei. The note with it: Plasmodium berghei, 96 h; P. berghei NK-65, Swiss mice, oral once daily for 4 days; read-out: ED50.
[4] abbreviates: Sprague-Dawley, rat, in vivo, po.

Where two headings read alike, the source gives them in different places.

As to `CCN(CC)Cc1cc(Nc2ccnc3cc(Cl)ccc23)ccc1O` [Amodiaquine, reference compound], the IC50 (usually the concentration that gives 50% inhibition) in the series on P. falciparum 3D7 (read-out: IC50) was 4.9 ± 1.8 nM; in the series on P. falciparum K1 (read-out: IC50) it was 21.2 ± 2.1 nM; in the series with P. falciparum TM4 (read-out: IC50), 15.2 ± 2.6 nM; in the series on P. falciparum DD2 (read-out: IC50), 9.1 ± 1.2 nM; in the series on P. falciparum V1S it was 8.7 ± 2.5 nM; with P. falciparum TM6 (read-out: IC50), 7.5 ± 2.4 nM. Also, the IC50 in the series with P. falciparum PH3 (read-out: IC50) amounted to 15.9 ± 3.2 nM.

With `C[C@H]1[C@H](OC(=O)CCC(=O)O)O[C@@H]2O[C@@]3(C)CC[C@H]4[C@H](C)CC[C@@H]1[C@@]24OO3` [Artesunate], under “rats, route iv”, the “MTD (maximum tolerated dose)” value came to 250 mg/kg. Moreover, the Primary therapeutic index with rodent P. berghei (MTD divided by MCD, route iv) came to 37. For the same compound, in the series with rodent P. berghei (MTD divided by MCureD, route iv), the Secondary therapeutic index came to 10. In the series on rodent P. berghei (route iv), the “MCureD (minimum curative dose)” value is on record as 25.4 mg/kg.

`O=C1C(O)=C([C@H]2CC[C@H](c3ccc(Cl)cc3)CC2)C(=O)c2ccccc21` [Atovaquone, reference compound] yielded a 50% inhibitory concentration (IC50) in [1] of 57 nM.

In the case of `CCN(CC)CCCC(C)Nc1ccnc2cc(Cl)ccc12` (stereo not shown) [Chloroquine, reference compound], the half-maximal inhibitory concentration (IC50) in the series with P. falciparum 3D7 is 9.7 ± 3.4 nM; in the series with P. falciparum K1, 166 ± 19.3 nM; in the series with P. falciparum TM4, 115 ± 12.7 nM; in the series on P. falciparum DD2, 45.8 ± 10.2 nM; in the series with P. falciparum V1S, 152 ± 14.1 nM; in the series on P. falciparum TM6, 96.4 ± 6.9 nM. For the same compound, in the series with P. falciparum PH3, it took 33.4 ± 9.1 nM to reach half-maximal inhibition (IC50). Moreover, the “MTD (maximum tolerated dose)” value (rats, administered orally (intragastric), observed 2 weeks) came to 240 mg/kg. Also, the “Results (radical curative test)” value in the series with Plasmodium cynomolgi is recorded as “relapse”. The “Days post-treatment (relapse)” value in the series on Plasmodium cynomolgi (one value per monkey) came out at 9 days. For the same compound, the “MCureD (minimum curative dose)” value in the series with rodent P. berghei (administered orally) is listed as “None”.

Consider `C[C@H]1[C@@H](O)O[C@@H]2O[C@@]3(C)CC[C@H]4[C@H](C)CC[C@@H]1[C@@]24OO3` [Dihydroartemisinin, reference compound], for which the ED50 – broadly, the midpoint of the dose-response relation – is 1.2 mg/kg in series [2], 1.1 mg/kg in [3] and 0.56 mg/kg in the series on P. berghei NK-65.

For the compound `OC(c1cc(C(F)(F)F)nc2c(C(F)(F)F)cccc12)C1CCCCN1` (stereo not shown) [Mefloquine], the “MTD (maximum tolerated dose)” value (Sprague-Dawley, rat, in vivo, po, 2 weeks) is 600 mg/kg. Further, in the series with rodent P. berghei (setting [4]), the Primary therapeutic index turned out to be 60 and the Secondary therapeutic index turned out to be 15. Moreover, the “MCureD (minimum curative dose)” value in the series on rodent P. berghei (administered orally) worked out at 40.5 mg/kg.

As for `COc1cc(NC(C)CCCN)c2ncccc2c1` (stereo not shown) [Primaquine, reference compound], half-maximal inhibition in series [1] (IC50) required 76 nM.
